A value given as a limit tells only on which side of the number the result lay.

Data set [1] has as its system human embryo lung (MRC-5) cells. In words: Cytotoxicity (CC50 or MTC) in uninfected MRC-5 cells. As to conditions: unit not given.
The test system of the next data set is HRV type 1A. In words: Inhibition of viral cytopathic effect (CPE), visual scoring or neutral red, HRV type 1A in MRC-5 cells. The note with it: for Activity on Rhinovirus Type 1A EC50: HRV type 1A in MRC-5 cells, CPE inhibition; for Activity on Rhinovirus Type 1A SI: selectivity index = CC50 or MTC divided by EC50, HRV type 1A, MRC-5 cells. In kind it is cell-based, human rhinovirus. (Damage to the host cells serves as the signal in cytopathic effect assays.)

A further data set concerns HRV type 2. In words: Inhibition of viral cytopathic effect (CPE), visual scoring or neutral red, HRV type 2 in KB cells. The data set is classed as cell-based, human rhinovirus. As to conditions: for Activity on Rhinovirus Type 2 EC50: HRV type 2 in KB cells, CPE inhibition; for Activity on Rhinovirus Type 2 SI: selectivity index = CC50 or MTC divided by EC50, HRV type 2, KB cells.

In the case of `CON=C(C)c1ccc(OCCC2CCN(c3ccc(Cl)nn3)CC2)c(OC)c1` [Compound 19], the “Activity on Rhinovirus Type 1A MTC” value in data set [1] is recorded as more than 1. Further, in the data set with HRV type 1A, the “Activity on Rhinovirus Type 1A EC50” value is less than 0.0032 µg/mL and the “Activity on Rhinovirus Type 1A SI” value is on record as more than 312. Besides, in the data set on HRV type 2, the “Activity on Rhinovirus Type 2 EC50” value is 0.019 µg/mL and the “Activity on Rhinovirus Type 2 SI” value was more than 53.

Regarding `CCOCCOCCON=Cc1ccc(OCCC2CCN(c3ccc(Cl)nn3)CC2)cc1` [Compound 20], the “Activity on Rhinovirus Type 1A MTC” value in data set [1] is listed as more than 50.00. In the data set on HRV type 1A, the “Activity on Rhinovirus Type 1A EC50” value was determined as 3.28 µg/mL and the “Activity on Rhinovirus Type 1A SI” value is more than 15.24. Besides, in the data set on HRV type 2, the “Activity on Rhinovirus Type 2 EC50” value is 3 µg/mL and the “Activity on Rhinovirus Type 2 SI” value amounted to 1.

Consider `CCON=Cc1ccc(OCCC2CCN(c3ccc(OCC(F)(F)F)nn3)CC2)cc1` [Compound 21], for which the “Activity on Rhinovirus Type 1A MTC” value in data set [1] is listed as more than 1. For the same compound, the “Activity on Rhinovirus Type 1A EC50” value in the data set on HRV type 1A is more than 1 µg/mL. For the same compound, in the data set on HRV type 2, the “Activity on Rhinovirus Type 2 EC50” value amounted to 0.3 µg/mL and the “Activity on Rhinovirus Type 2 SI” value was more than 3.

As for `CON=Cc1cc(C)c(OCCCc2cc(C)no2)c(C)c1` [Compound 22], in data set [1], the “Activity on Rhinovirus Type 1A MTC” value came to 36.0. In addition, in the data set on HRV type 1A, the “Activity on Rhinovirus Type 1A EC50” value is less than 0.16 µg/mL and the “Activity on Rhinovirus Type 1A SI” value is given as more than 320. In addition, in the data set with HRV type 2, the “Activity on Rhinovirus Type 2 EC50” value was less than 0.05 µg/mL and the “Activity on Rhinovirus Type 2 SI” value is more than 400.

`C=CCON=Cc1cc(C)c(OCCCc2cc(C)no2)c(C)c1` [Compound 23]: the “Activity on Rhinovirus Type 1A MTC” value in data set [1] was more than 50. Besides, in the data set on HRV type 1A, the “Activity on Rhinovirus Type 1A EC50” value is less than 0.16 µg/mL and the “Activity on Rhinovirus Type 1A SI” value is recorded as more than 320. Besides, in the data set on HRV type 2, the “Activity on Rhinovirus Type 2 EC50” value is less than 0.05 µg/mL and the “Activity on Rhinovirus Type 2 SI” value is more than 340.

Take `Cc1cc(CCCOc2c(C)cc(C=NOCc3ccccc3)cc2C)on1` [Compound 25]: the “Activity on Rhinovirus Type 1A MTC” value in data set [1] is more than 50. In the data set with HRV type 1A, the “Activity on Rhinovirus Type 1A EC50” value amounted to 0.36 µg/mL and the “Activity on Rhinovirus Type 1A SI” value is more than 139.4. In the data set with HRV type 2, the “Activity on Rhinovirus Type 2 EC50” value was determined as 0.5 µg/mL and the “Activity on Rhinovirus Type 2 SI” value is 34.

For the compound `CCON=Cc1ccc(OCCC2CCN(c3ccc(OC)nn3)CC2)cc1` [Compound 26], the “Activity on Rhinovirus Type 1A MTC” value in data set [1] is on record as more than 1. Further, in the data set with HRV type 1A, the “Activity on Rhinovirus Type 1A EC50” value was 0.077 µg/mL and the “Activity on Rhinovirus Type 1A SI” value is on record as more than 13.0. In addition, in the data set with HRV type 2, the “Activity on Rhinovirus Type 2 EC50” value was 0.16 µg/mL and the “Activity on Rhinovirus Type 2 SI” value is given as more than 6.

Take `CCON=Cc1ccc(OCCN2CCN(c3ccc(Cl)nn3)CC2)cc1` [Compound 27]: the “Activity on Rhinovirus Type 1A MTC” value in data set [1] is more than 1. In addition, in the data set with HRV type 1A, the “Activity on Rhinovirus Type 1A EC50” value worked out at 0.017 µg/mL and the “Activity on Rhinovirus Type 1A SI” value is on record as more than 59.6. Also, in the data set on HRV type 2, the “Activity on Rhinovirus Type 2 EC50” value was 0.1 µg/mL and the “Activity on Rhinovirus Type 2 SI” value is more than 10.

In the case of `CCON=Cc1ccc(OCC2CCCN(c3ccc(Cl)nn3)C2)cc1` (stereo not drawn) [Compound 28], the “Activity on Rhinovirus Type 1A MTC” value in data set [1] is given as more than 1. In addition, in the data set on HRV type 1A, the “Activity on Rhinovirus Type 1A EC50” value was 0.180 µg/mL and the “Activity on Rhinovirus Type 1A SI” value was more than 5.5. Besides, in the data set with HRV type 2, the “Activity on Rhinovirus Type 2 EC50” value was 0.06 µg/mL and the “Activity on Rhinovirus Type 2 SI” value is more than 17.

As for `CCON=Cc1ccc(OCC2CCN(c3ccc(Cl)nn3)CC2)cc1` [Compound 31], the “Activity on Rhinovirus Type 1A MTC” value in data set [1] is more than 1. Also, in the data set on HRV type 1A, the “Activity on Rhinovirus Type 1A EC50” value amounted to 0.017 µg/mL and the “Activity on Rhinovirus Type 1A SI” value is reported as more than 59.6. Also, in the data set with HRV type 2, the “Activity on Rhinovirus Type 2 EC50” value amounted to 0.003 µg/mL and the “Activity on Rhinovirus Type 2 SI” value is on record as more than 333.

Take `CCON=Cc1ccc(OCCCC2CCN(c3ccc(Cl)nn3)CC2)cc1` [Compound 32]: the “Activity on Rhinovirus Type 1A MTC” value in data set [1] is more than 1. Further, in the data set on HRV type 1A, the “Activity on Rhinovirus Type 1A EC50” value came to 0.222 µg/mL and the “Activity on Rhinovirus Type 1A SI” value is given as more than 4.5. In addition, in the data set on HRV type 2, the “Activity on Rhinovirus Type 2 EC50” value came out at 0.014 µg/mL and the “Activity on Rhinovirus Type 2 SI” value is recorded as more than 70.

Values taken from US7078403B1, “Antiviral agents” (Biota Scientific Management Pty Ltd., priority 1999, dated 2006).
